In US10711001B2, “Macrocylic ligands with picolinate group(s), complexes thereof and also medical uses thereof” (GUERBET, priority 2015, dated 2020):
Read-outs that look alike come from different tables or passages of the source. Marks after values point to notes of the source that are not given here.

Columns and labels:
[1] = pM = −log[M] calculated from protonation and stability constants; type: physicochemical; conditions: calculated from the constants with CL = 10 × CM = 10^−5 M at pH 7.4
Source text: The constant pM=-log[M] is used for this purpose. […] The ligand […]04214 has a p(Y) of 17.3, which is higher than that of PCTA (p(Y)=17.0), of […])=16.8) and of […])=16.9).

[2] = cited from earlier work
[3] = Y^3+, cited from earlier work
[4] = Relaxivity of the gadolinium complexes; type: physicochemical; conditions: gadolinium complex of the ligand, water, 37° C.
Procedure: The relaxivity studies were performed on the gadolinium complexes of the ligands P04218, P04216 and P04213, on Minispec Mq-20 and Minispec Mq-60 machines (Brüker, Karlsruhe, Germany) at 20 MHz (0.47 T) and 60 MHz (1.4 T) in water at 37° C.
For each complex prepared previously, a [Gd] concentration range extending from 0.5 to 5 mM was prepared and the values T1 and T2 of each of these solutions were then measured to determine the relaxivity values r1 and r2 by means of equation 1. For each of the ligands, a trend curve whose correlation coefficient was equal to or very close to 1 was obtained, which made it possible to check equation 1 and to validate the quality of the measurements taken. The curves plotted make it possible to determine the relaxivity value “r” which corresponds to coefficient “a” of the equation for the straight line “ax+b”.

[5] = Protonation constants of the ligands by potentiometry; type: physicochemical; conditions: I = 0.1 KNO3, 25° C.
Procedure: (§1) The experiments were performed under an inert atmosphere in aqueous solutions thermostatically maintained at 25.0±0.1° C. The protonation and complexation titrations were performed in a jacketed glass titrations cell using a Metrohm 702 SM Titrino automatic burette connected to a Metrohm 6.0233.100 combined glass electrode. The titrations were controlled automatically by software after selection of the appropriate parameters avoiding monitoring during long measurements.
The titrant is an approximately 0.1 M KOH solution prepared from an analytical-grade commercial vial and its exact concentration is obtained by applying the Gran method by titrating with a standard HNO3 solution.
(§2) The ligand solutions were prepared at approximately 2.0×10^−3 M and the Cu^2+, Pb^2+ and y^3+ solutions at approximately 0.04 M from analytical-grade chloride salts and standardized by complexometric titration with H4edta (ethylenediaminetetraacetic acid)^1. The solution to be titrated contains approximately 0.05 mmol of ligand in a volume of 30.00 mL, the ionic strength of which was maintained at 0.10 M using KNO3 as electrolyte. 1.2 equivalents of metal cation (Cu^2+ or Pb^2+) were added to the ligand (0.05 mmol) during the standardization titrations of the ligand solution.
The electromotive force of the solution was measured after calibration of the electrode by titration of a standard […] HNO3 solution. The [H^+] of the solutions was determined by measuring the electromotive force of the cell, E=E^o′+Q log [H^+]+Ej. The term “pH” is defined by −log[H^+]. E^o′ and Q are determined by the acidic region of the calibration curves. The liquid junction potential, Ej, is negligible under the experimental conditions used. The value of Ke=[H^+][OH^−] is 10^−13.78.
(§3) The potentiometric data were refined with the Hyperquad software^2 and the speciation diagrams were plotted using the HySS software^3.
(§4) The overall equilibrium constants βiH and βMmHhLl are defined by βMmHhLl=[MmHhLl]/[M]m[H]h[L]l, (βiH=[HhLl]/[H]h[L]l and βMH−1L=βML(OH)×Ke). The differences, in log units, between the protonation (or hydrolysis) values and the non-protonation constants give the intermediate reaction constants (log K) (with KMmHhLl=[MmHhLl]/[MmHh-1Ll][H]). The errors indicated are the standard deviations calculated by the adjustment program from all of the experimental data for each system.
Four protonation constants were determined for the ligands Pc1a2pa sym P04213, Pc1a2pa asym P04214, Pc2a1pa sym P04216 and Pc3pa P04221. These values are coherent with those determined for PCTMB (phosphonic acid, P,P′,P″-[3,6,9,15-tetraazabicyclo[9.3.1]pentadeca-1(15),11,13-triene-3,6,9-triyltris(methylene)]tris-, P,P′,P″-tributyl ester) and also with those described in the literature especially for PCTA (3,6,9,15-tetraazabicyclo[9.3.1]pentadeca-1(15),11,13-triene-3,6,9-triacetic acid), EDTA (ethylenediaminetetraacetic acid) and DOTA (1,4,7,10-tetraazacyclododecane-1,4,7,10-tetraacetic acid).

[6] = Stability constants of the yttrium complexes by potentiometry; type: physicochemical; conditions: Y^3+
Procedure: as §1, §2
0.9 equivalent of metal cation (Y^3+) was added to the ligand during the complexation titration methods.
as §3, §4
The thermodynamic protonation and stability constants of the complexes were determined by potentiometry at 25° C. with control of the ionic strength (I=0.1 M KNO3). Refinement of the titration curves with the HyperQuad software makes it possible to determine the overall constants (log β), from which the partial constants (log K) are calculated.
The stability constants of the ligands Pc1a2pa sym P04213, Pc1a2pa asym P04214 et Pc2a1pa sym P04218 and P04221 with yttrium were determined by direct potentiometric titration. The log KYL constant values for the ligands Pc1a2pa sym, Pc1a2pa asym and Pc2a1pa sym are, respectively, 19.78, 19.49 and 19.28, and the log KYLH^−1 constant values are 11.84, 11.79 and 10.60.

[7] = Complexation kinetics of the ligands with yttrium by UV-visible spectroscopy; type: physicochemical
Procedure: The formation of the yttrium(III) complexes of […] were studied in an aqueous solution of acetate buffer (C=0.150 M) at 25° C. under pseudo-first-order conditions.
The complexation kinetics of the ligands Pc1a2pa sym P04213, Pc1a2pa asym P04214 and Pc2a1pa sym P04218 with yttrium were studied at pH 3.8 and pH 5.5 in acetate buffer medium by UV-visible spectroscopy. Placed at the absorption maximum of the complex, the increase in absorbance intensity is measured every two seconds until the maximum absorbance is reached. The decrease in intensity of the absorbance at the absorbance maximum of the ligand is monitored when the absorption band of the complex is masked by that of the ligand. For this study, the concentration of the ligands Pc1a2pa sym and Pc1a2pa asym is 4×10^−5 M and 8×10^−5 M for the ligand Pc2a1pa sym. At pH 5.5 and 3.8, the ligand Pc1a2pa sym has the fastest complexation kinetics, with total complexation in 30 and 400 seconds, respectively. For the ligands Pc1a2pa asym and Pc2a1pa sym, the complexation is complete in 1100 seconds at pH 3.8 and 100 seconds at pH 5.5.

[8] = direct potentiometric titration, 25° C., I=0.1 M KNO3
[9] = determined by competition with EDTA, 0.1M KNO3

| Structure (SMILES) | pY (pM = −log[M]) [1] | Relaxivity r1 ([4]; 20 MHz (0.47 T)) | Relaxivity r1 ([4]; 60 MHz (1.4 T)) | log Ki^H [H2L]/[HL][H] [5] | log Ki^H [H3L]/[H2L][H] [5] | log Ki^H [H4L]/[H3L][H] [5] | log Ki^H [HL]/[L][H] [5] | log KMHiL [ML]/[MLOH][H] (log KYLH^−1) [6, 8] | log KMHiL [ML]/[M][L] (log KYL) [6, 8] | time to total complexation with yttrium ([7]; pH 3.8, acetate buffer) | time to total complexation with yttrium ([7]; pH 5.5, acetate buffer) | also measured |
| --- | --- | --- | --- | --- | --- | --- | --- | --- | --- | --- | --- | --- |
| O=C(O)CN1CCN(CC(=O)O)CCN(CC(=O)O)CCN(CC(=O)O)CC1 [DOTA, 1,4,7,10-tetraazacyclododecane-1,4,7,10-tetraacetic acid] | 18.8 | – | – | – | – | – | – | – | – | – | – | log Ki^H [H2L]/[HL][H] ([2]; I = 0.1 Me4NNO3): 9.76; log Ki^H [H3L]/[H2L][H] ([2]; I = 0.1 Me4NNO3): 4.56; log Ki^H [H4L]/[H3L][H] ([2]; I = 0.1 Me4NNO3): 4.09; log KMHiL [ML]/[M][L] ([3]; Ref 7, 0.1M NMe4NO3): 24.9 ^h |
| O=C(O)CN(CCN(CC(=O)O)CC(=O)O)CC(=O)O [EDTA, ethylenediaminetetraacetic acid] | 16.6 | – | – | – | – | – | – | – | – | – | – | log Ki^H [H2L]/[HL][H] ([2]; I = 0.1 KNO3): 6.16; log Ki^H [H3L]/[H2L][H] ([2]; I = 0.1 KNO3): 2.71; log Ki^H [H4L]/[H3L][H] ([2]; I = 0.1 KNO3): 2.0; log Ki^H [HL]/[L][H] ([2]; I = 0.1 KNO3): 10.22; log KMHiL [ML]/[M][L] ([3]; Ref 5, 0.1M NMe4Cl): 18.5 ^d |
| O=C(O)CN1CCN(CC(=O)O)Cc2cccc(n2)CN(CC(=O)O)CC1 [PCTA, 3,6,9,15-tetraazabicyclo[9.3.1]pentadeca-1(15),11,13-triene-3,6,9-triacetic acid] | 17.0 | – | – | – | – | – | – | – | – | – | – | log Ki^H [H2L]/[HL][H] ([2]; I = 1.0 KCl): 7.35; log Ki^H [H3L]/[H2L][H] ([2]; I = 1.0 KCl): 3.83; log Ki^H [H4L]/[H3L][H] ([2]; I = 1.0 KCl): 2.12; log Ki^H [H5L]/[H4L][H] ([2]; I = 1.0 KCl): 1.29; log Ki^H [HL]/[L][H] ([2]; I = 1.0 KCl): 11.36; log KMHiL [MHL]/[ML][H] ([3]; Ref 3, 1.0M KCl): 1.81; log KMHiL [ML]/[MLOH][H] ([3]; Ref 3, 1.0M KCl): 11.10; log KMHiL [ML]/[M][L] ([3]; Ref 3, 1.0M KCl): 20.28 |
| CCCCOP(=O)(O)CN1CCN(CP(=O)(O)OCCCC)Cc2cccc(n2)CN(CP(=O)(O)OCCCC)CC1 [PCTMB, phosphonic acid, P,P′,P″-[3,6,9,15-tetraazabicyclo[9.3.1]pentadeca-1(15),11,13-triene-3,6,9-triyltris(methylene)]tris-, P,P′,P″-tributyl ester, reference compound] | 16.7 | – | – | 5.28 | 1.72 | – | 11.16 | – | – | – | – | log KMHiL [MHL]/[ML][H] [6, 9]: 3.45; log KMHiL [ML]/[MLOH][H] [6, 9]: 9.10; log KMHiL [ML]/[M][L] [6, 9]: 19.49 |

Continued, in another order:

| pY (pM = −log[M]) [1] | Relaxivity r1 ([4]; 20 MHz (0.47 T)) | Relaxivity r1 ([4]; 60 MHz (1.4 T)) | log Ki^H [H2L]/[HL][H] [5] | log Ki^H [H3L]/[H2L][H] [5] | log Ki^H [H4L]/[H3L][H] [5] | log Ki^H [HL]/[L][H] [5] | log KMHiL [ML]/[MLOH][H] (log KYLH^−1) [6, 8] | log KMHiL [ML]/[M][L] (log KYL) [6, 8] | Structure (SMILES) | time to total complexation with yttrium ([7]; pH 3.8, acetate buffer) | time to total complexation with yttrium ([7]; pH 5.5, acetate buffer) | also measured |
| --- | --- | --- | --- | --- | --- | --- | --- | --- | --- | --- | --- | --- |
| 16.8 | r1 = 1.9 mmol^−1s^−1 | r1 = 1.6 mmol^−1s^−1 | 5.58 | 4.23 | 3.01 | 11.30 | 11.84 | 19.78 | O=C(O)CN1CCN(Cc2cccc(C(=O)O)n2)Cc2cccc(n2)CN(Cc2cccc(C(=O)O)n2)CC1 [Ligand P04213] | 400 s | 30 s | – |
| 17.3 | – | – | 6.73 | 3.86 | 2.98 | 10.50 | 11.79 | 19.49 | O=C(O)CN1CCN(Cc2cccc(C(=O)O)n2)CCN(Cc2cccc(C(=O)O)n2)Cc2cccc(n2)C1 [Ligand P04214] | 1100 s | 100 s | – |
| – | r1 = 3.7 mmol^−1s^−1 | r1 = 3.2 mmol^−1s^−1 | – | – | – | – | – | – | O=C(O)CN1CCN(CC(=O)O)Cc2cccc(n2)CN(Cc2cccc(C(=O)O)n2)CC1 [Ligand P04216] | – | – | – |
| 16.9 | r1 = 3.9 mmol^−1s^−1 | r1 = 3.2 mmol^−1s^−1 | 7.38 | 3.95 | 2.15 | 10.43 | 10.60 | 19.28 | O=C(O)CN1CCN(Cc2cccc(C(=O)O)n2)CCN(CC(=O)O)Cc2cccc(n2)C1 [Ligand P04218] | 1100 s | 100 s | – |
| – | – | – | 5.95 | 3.82 | 2.98 | 10.03 | – | – | O=C(O)c1cccc(CN2CCN(Cc3cccc(C(=O)O)n3)Cc3cccc(n3)CN(Cc3cccc(C(=O)O)n3)CC2)n1 [Ligand P04221] | – | – | – |
| 14.7 | – | – | – | – | – | – | 11.02 | 16.42 | O=C([O-])c1cccc(CN2CCN(Cc3cccc(C(=O)[O-])n3)Cc3cccc(n3)CN(Cc3cccc(C(=O)[O-])n3)CC2)n1.[Y+3] [Ligand P04222] | – | – | log KMHiL [MHL]/[ML][H] [6, 8]: 3.11 |
